# The NIST ThermoML archive (doi:10.1016/j.jct.2014.05.014)
# ± gives the expanded uncertainty stated by the source.
# Test: cn = amount concentration of the nth substance listed, in mol/dm3
# Conditions: 101.3 kPa, Liquid; for electrical conductivity: Alternating current cell with electrodes; for viscosity: Falling or rolling sphere viscometry; for mass density: Vibrating tube method
structure (smiles),measurement,setting,value
CC(N)C(=O)[O-].[K+] (stereo not drawn) [potassium DL-alaninate] + O,electrical conductivity,"303.15 K, c1 = 0.526",3.96 ± 0.08 S/m
same,electrical conductivity,"303.15 K, c1 = 1.009",6.63 ± 0.14 S/m
same,electrical conductivity,"303.15 K, c1 = 1.499",8.42 ± 0.17 S/m
same,electrical conductivity,"303.15 K, c1 = 2.018",9.49 ± 0.19 S/m
same,electrical conductivity,"303.15 K, c1 = 2.501",9.88 ± 0.2 S/m
same,electrical conductivity,"303.15 K, c1 = 3.046",9.87 ± 0.2 S/m
same,electrical conductivity,"303.15 K, c1 = 3.497",9.58 ± 0.19 S/m
same,viscosity,"303.15 K, c1 = 0.514",0.942 ± 0.02 mPa·s
same,viscosity,"303.15 K, c1 = 1.029",1.118 ± 0.024 mPa·s
same,viscosity,"303.15 K, c1 = 1.524",1.342 ± 0.03 mPa·s
same,viscosity,"303.15 K, c1 = 1.999",1.6 ± 0.037 mPa·s
same,viscosity,"303.15 K, c1 = 2.522",1.964 ± 0.047 mPa·s
same,viscosity,"303.15 K, c1 = 3.048",2.422 ± 0.059 mPa·s
same,mass density,"303.15 K, c1 = 0.495",1024.1 ± 1.6 kg/m3
same,mass density,"303.15 K, c1 = 1.014",1051.7 ± 1.7 kg/m3
same,mass density,"303.15 K, c1 = 1.509",1078.7 ± 1.8 kg/m3
same,mass density,"303.15 K, c1 = 1.954",1103.2 ± 1.9 kg/m3
same,mass density,"303.15 K, c1 = 2.507",1131.4 ± 2.1 kg/m3
same,mass density,"303.15 K, c1 = 2.988",1155.8 ± 2.2 kg/m3
same,mass density,"303.15 K, c1 = 3.499",1181 ± 2.4 kg/m3
same,electrical conductivity,"308.15 K, c1 = 0.526",4.34 ± 0.09 S/m
same,electrical conductivity,"308.15 K, c1 = 1.009",7.25 ± 0.15 S/m
same,electrical conductivity,"308.15 K, c1 = 1.499",9.18 ± 0.19 S/m
same,electrical conductivity,"308.15 K, c1 = 2.018",10.4 ± 0.21 S/m
same,electrical conductivity,"308.15 K, c1 = 2.501",10.8 ± 0.22 S/m
same,electrical conductivity,"308.15 K, c1 = 3.046",10.9 ± 0.22 S/m
same,electrical conductivity,"308.15 K, c1 = 3.497",10.6 ± 0.21 S/m
same,viscosity,"308.15 K, c1 = 0.514",0.845 ± 0.018 mPa·s
same,viscosity,"308.15 K, c1 = 1.029",1.009 ± 0.022 mPa·s
same,viscosity,"308.15 K, c1 = 1.524",1.203 ± 0.027 mPa·s
same,viscosity,"308.15 K, c1 = 1.999",1.429 ± 0.033 mPa·s
same,viscosity,"308.15 K, c1 = 2.522",1.745 ± 0.042 mPa·s
same,viscosity,"308.15 K, c1 = 3.048",2.135 ± 0.052 mPa·s
same,mass density,"308.15 K, c1 = 0.495",1022.4 ± 1.6 kg/m3
same,mass density,"308.15 K, c1 = 1.014",1049.8 ± 1.7 kg/m3
same,mass density,"308.15 K, c1 = 1.509",1076.7 ± 1.8 kg/m3
same,mass density,"308.15 K, c1 = 1.954",1101.1 ± 1.9 kg/m3
same,mass density,"308.15 K, c1 = 2.507",1129.2 ± 2.1 kg/m3
same,mass density,"308.15 K, c1 = 2.988",1153.4 ± 2.2 kg/m3
same,mass density,"308.15 K, c1 = 3.499",1178.4 ± 2.4 kg/m3
same,electrical conductivity,"313.15 K, c1 = 0.526",4.73 ± 0.1 S/m
same,electrical conductivity,"313.15 K, c1 = 1.009",7.84 ± 0.17 S/m
same,electrical conductivity,"313.15 K, c1 = 1.499",9.94 ± 0.2 S/m
same,electrical conductivity,"313.15 K, c1 = 2.018",11.2 ± 0.23 S/m
same,electrical conductivity,"313.15 K, c1 = 2.501",11.8 ± 0.24 S/m
same,electrical conductivity,"313.15 K, c1 = 3.046",11.8 ± 0.24 S/m
same,electrical conductivity,"313.15 K, c1 = 3.497",11.6 ± 0.23 S/m
same,viscosity,"313.15 K, c1 = 0.514",0.769 ± 0.017 mPa·s
same,viscosity,"313.15 K, c1 = 1.029",0.909 ± 0.02 mPa·s
same,viscosity,"313.15 K, c1 = 1.524",1.093 ± 0.024 mPa·s
same,viscosity,"313.15 K, c1 = 1.999",1.29 ± 0.03 mPa·s
same,viscosity,"313.15 K, c1 = 2.522",1.569 ± 0.037 mPa·s
same,viscosity,"313.15 K, c1 = 3.048",1.907 ± 0.046 mPa·s
same,mass density,"313.15 K, c1 = 0.495",1020.5 ± 1.6 kg/m3
same,mass density,"313.15 K, c1 = 1.014",1047.7 ± 1.7 kg/m3
same,mass density,"313.15 K, c1 = 1.509",1074.5 ± 1.8 kg/m3
same,mass density,"313.15 K, c1 = 1.954",1098.8 ± 1.9 kg/m3
same,mass density,"313.15 K, c1 = 2.507",1126.8 ± 2.1 kg/m3
same,mass density,"313.15 K, c1 = 2.988",1150.9 ± 2.2 kg/m3
same,mass density,"313.15 K, c1 = 3.499",1175.8 ± 2.4 kg/m3
same,electrical conductivity,"318.15 K, c1 = 0.526",5.12 ± 0.11 S/m
same,electrical conductivity,"318.15 K, c1 = 1.009",8.45 ± 0.18 S/m
same,electrical conductivity,"318.15 K, c1 = 1.499",10.7 ± 0.22 S/m
same,electrical conductivity,"318.15 K, c1 = 2.018",12.1 ± 0.24 S/m
same,electrical conductivity,"318.15 K, c1 = 2.501",12.7 ± 0.26 S/m
same,electrical conductivity,"318.15 K, c1 = 3.046",12.8 ± 0.26 S/m
same,electrical conductivity,"318.15 K, c1 = 3.497",12.6 ± 0.25 S/m
same,viscosity,"318.15 K, c1 = 0.514",0.705 ± 0.015 mPa·s
same,viscosity,"318.15 K, c1 = 1.029",0.83 ± 0.018 mPa·s
same,viscosity,"318.15 K, c1 = 1.524",1 ± 0.022 mPa·s
same,viscosity,"318.15 K, c1 = 1.999",1.17 ± 0.027 mPa·s
same,viscosity,"318.15 K, c1 = 2.522",1.426 ± 0.034 mPa·s
same,viscosity,"318.15 K, c1 = 3.048",1.712 ± 0.041 mPa·s
same,mass density,"318.15 K, c1 = 0.495",1018.4 ± 1.6 kg/m3
same,mass density,"318.15 K, c1 = 1.014",1045.6 ± 1.7 kg/m3
same,mass density,"318.15 K, c1 = 1.509",1072.3 ± 1.8 kg/m3
same,mass density,"318.15 K, c1 = 1.954",1096.5 ± 1.9 kg/m3
same,mass density,"318.15 K, c1 = 2.507",1124.3 ± 2.1 kg/m3
same,mass density,"318.15 K, c1 = 2.988",1148.3 ± 2.2 kg/m3
same,mass density,"318.15 K, c1 = 3.499",1173.1 ± 2.4 kg/m3
same,electrical conductivity,"323.15 K, c1 = 0.526",5.5 ± 0.12 S/m
same,electrical conductivity,"323.15 K, c1 = 1.009",9.06 ± 0.19 S/m
same,electrical conductivity,"323.15 K, c1 = 1.499",11.5 ± 0.24 S/m
same,electrical conductivity,"323.15 K, c1 = 2.018",12.9 ± 0.26 S/m
same,electrical conductivity,"323.15 K, c1 = 2.501",13.7 ± 0.27 S/m
same,electrical conductivity,"323.15 K, c1 = 3.046",13.9 ± 0.28 S/m
same,electrical conductivity,"323.15 K, c1 = 3.497",13.7 ± 0.27 S/m
same,viscosity,"323.15 K, c1 = 0.514",0.644 ± 0.014 mPa·s
same,viscosity,"323.15 K, c1 = 1.029",0.76 ± 0.017 mPa·s
same,viscosity,"323.15 K, c1 = 1.524",0.922 ± 0.02 mPa·s
